We go through twelve compounds from US20200039930A1, “PROLINE AMIDE COMPOUNDS AND THEIR AZETIDINE ANALOGUES CARRYING A SPECIFICALLY SUBSTITUTED BENZYL RADICAL” (AbbVie Deutschland GmbH & Co. KG, priority 2017, published 2020).

The structures appear in SMILES notation. Some results are limits rather than exact numbers.

The term EC50 denotes the midpoint of the concentration-response curve. Usually Emax stands for the size of the effect at its maximum, as opposed to the concentration needed.

Data set [1] in a line: Metabolic stability: unbound intrinsic clearance in liver microsomes. The following applies: rat; liver microsomes 0.25 mg protein/mL, 0.5 μM compound, pH 7.4, 37° C.; Cl int unbound=Cl int/fu mic; compounds used as acid addition salts; read-out: Cl int, mic unb. (r) (unbound intrinsic clearance). Format: in vitro ADME. As for the experimental part:
Samples of the tested compounds (0.5 μM) were preincubated together with rat liver microsomes (0.25 mg of microsomal protein/mL) in 0.05 M potassium phosphate buffer of pH 7.4 in microtiter plates at 37° C. for 5 minutes. The reaction was started by adding NADPH (1.0 mM). After 0, 5, 10, 15, 20 and 30 minutes, an aliquot was removed, the reaction was cooled and stopped by adding twice the amount of quench solution consisting of acetonitrile/methanol 1:1, and containing […] carbutamide as internal standard. The samples were frozen until analyzed. The remaining concentration of undegraded test substance was determined by liquid chromatography-tandem mass spectrometry (LC-MS/MS). The half-life (t1/2) was determined from the gradient of the ratio of the signal of (test substance/internal standard)/unit time plot, allowing the calculation of the half-life of the test substance, assuming first order kinetics, from the decrease in the concentration of the compound with time. The microsomal clearance (mClint) was calculated as follows: mClint=((ln(2)/t 1/2)/Microsomal Protein Concentration (mg/ml))*1000, leading to the unit of uL/min/mg. The scaled clearance (mClin_scaled) was calculated as mCLint_scaled=m CLint*(Microsomal Yield (mg/kg BW))/1000000*60, leading to the units L/h/kg. The Microsomal Yield is defined by the specifics of the used microsomes. Calculations were modified from refer-ences: Di, The Society for Biomolecular Screening, 2003, 453-462; Obach, D M D, 1999 vol 27. N 11, 1350-1359.
A suspension of 0.25 mg/ml microsomal protein spiked with 0.5 μM of test compound was pipetted on one side of a HTDialysis device (HTDialysis LLC,37 Ledgewood Drive, Gales Fery Conn. 06335) separated by a membrane with a MWcut off 12-14 K. 50 mM K-Phosphate buffer (pH 7.4) was added on the other side of the well. After incubation at 37° C. for 4 h while shaking at 150 rpm, aliquots of both sides were taken, quenched with MeOH/ACN 1:1 and 0.2 μM of internal standard and frozen until analy-sis by LCMSMS.
Cl int unbound=Cl int/fu mic
The compounds were used in form of their respective acid addition salts.

The target in another data set is T1, 5-HT2C receptor (Homo sapiens, UniProt P28335).
T1 construct: host or cells: U2OS
In words: Human 5-HT2C functional assay (beta-arrestin2 recruitment, U2OS_HTR2C_β-Arrestin cells). Format: cell-based. The following applies: compounds used as acid addition salts; for EC50: U2OS_HTR2C_β-Arrestin cells, 1.5 h incubation, read-out: EC50 5-HT2C (potency in functional assay); for Emax: relative efficacy vs response to 10 µM 5-HT or maximal effect of 5-HT (100%). As for the experimental part:
The functional activity of compounds of formula I was assayed by incubation with U2OS_HTR2C_β-Arrestin cells (DiscoverX, 93-0289C3) to induce beta-arrestin2 recruitment to the 5-HT2C receptor. The agonist-induced recruitment and proximity of the receptor and beta-arrestin2 leads to complementation and formation of active β-galactosidase. The enzyme complementation results in enzyme activity, which is measured following the termination of the agonist incubation using DiscoveRx's detection reagent, which contains a chemiluminescent substrate which produces a high intensity signal. Cells were plated and a medium-change to a 1% serum containing medium was performed 24 h later. The next day, test compounds were added and incubated for 1.5 h before addition of detection reagent.
The response produced was measured and compared with the response produced by 10 [mu]M 5-HT or the maximal effect induced by 5-HT (defined as 100%) to which it was expressed as a percentage response (relative efficacy). Dose response curves were con-structed using Graphpad Prism (Graph Software Inc.) or using in house adapted software using a 4 parameter dose response model with variable slope (fit=(Bottom+(Top−Bottom)/(1+10^((LogEC50−x)*Hill Slope))res=(y−fit)). Results are compiled in the table below.
On the technique in general: Recruitment of arrestin is a read-out of receptor activation apart from second messengers.

T1 sequence (P28335 33-458): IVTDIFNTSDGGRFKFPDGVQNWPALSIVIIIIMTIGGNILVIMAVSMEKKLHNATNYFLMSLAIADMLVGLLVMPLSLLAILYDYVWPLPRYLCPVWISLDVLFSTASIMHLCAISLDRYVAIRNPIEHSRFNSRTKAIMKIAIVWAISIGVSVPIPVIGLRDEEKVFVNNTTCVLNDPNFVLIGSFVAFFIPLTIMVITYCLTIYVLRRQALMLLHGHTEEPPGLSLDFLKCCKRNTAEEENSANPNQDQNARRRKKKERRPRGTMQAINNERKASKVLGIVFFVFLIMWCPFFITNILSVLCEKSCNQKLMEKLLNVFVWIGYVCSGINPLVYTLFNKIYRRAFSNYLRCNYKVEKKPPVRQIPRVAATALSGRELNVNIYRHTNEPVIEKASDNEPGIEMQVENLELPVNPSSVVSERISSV
T1 sequence (P32121 whole entry partner): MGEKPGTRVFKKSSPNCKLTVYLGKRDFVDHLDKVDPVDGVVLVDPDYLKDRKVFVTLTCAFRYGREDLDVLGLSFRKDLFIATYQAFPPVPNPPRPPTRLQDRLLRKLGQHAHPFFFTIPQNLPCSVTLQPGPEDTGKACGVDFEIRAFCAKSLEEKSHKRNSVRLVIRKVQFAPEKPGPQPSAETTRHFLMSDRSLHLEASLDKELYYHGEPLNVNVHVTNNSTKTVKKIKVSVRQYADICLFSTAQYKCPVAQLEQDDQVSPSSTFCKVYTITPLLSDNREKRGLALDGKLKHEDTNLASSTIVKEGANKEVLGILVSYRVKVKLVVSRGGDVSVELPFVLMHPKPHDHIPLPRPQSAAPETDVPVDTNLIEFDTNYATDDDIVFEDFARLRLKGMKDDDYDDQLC

On to `COc1cc(OCC2CCC(F)(F)CC2)c(F)cc1CNC(=O)[C@@H]1CCCN1` [Example 32, (2S)—N-[[4-[(4,4-Difluorocyclohexyl)methoxy]-5-fluoro-2-methoxy-phenyl]methyl]-pyrrolidine-2-carboxamide], for which, in data set [1], the CLint scaled at 0.5 μM was below 500 mL/min/kg. Besides, on 5-HT2C receptor, the 50% effective concentration (EC50) was 5 to 15 nM and the Emax is above 70%.
Turning to `COc1cc(O[C@H]2CC[C@H](C(F)(F)F)CC2)c(F)cc1CNC(=O)[C@@H]1CCCN1` [Example 33, (S)—N-(5-Fluoro-4-((trans-4-trifluoromethyl-cyclohexyl)oxy)-2-methoxybenzyl)-pyrrolidine-2-carboxamide], the CLint scaled at 0.5 μM in data set [1] is below 500 mL/min/kg. At 5-HT2C receptor, the EC50 was below 5 nM and the Emax was above 70%.
For `COc1cc(O[C@H]2CC[C@@H](C(F)(F)F)CC2)c(F)cc1CNC(=O)[C@@H]1CCCN1` [Example 34, (S)—N-(5-Fluoro-4-((cis-4-trifluoromethyl-cyclohexyl)oxy)-2-methoxybenzyl)-pyrrolidine-2-carboxamide], in that order: 1330 to 4170 mL/min/kg, 5 to 15 nM and above 70%.
For `COc1cc(OC2CCCC(C(F)(F)F)C2)c(F)cc1CNC(=O)[C@@H]1CCCN1` (stereo partly drawn) [Example 35, (2S)—N-[[5-Fluoro-2-methoxy-4-[3-(trifluoromethyl)cyclohexoxy]phenyl]methyl]-pyrrolidine-2-carboxamide], in that order: 500 to 1330 mL/min/kg, below 5 nM and above 70%.
The matching figures for `COc1cc(OCC(F)(F)C(F)F)c(F)cc1CNC(=O)[C@@H]1CCCN1C` [Example 36, (2S)—N-[[5-Fluoro-2-methoxy-4-(2,2,3,3-tetrafluoropropoxy)phenyl]methyl]-1-methyl-pyrrolidine-2-carboxamide]: 500 to 1330 mL/min/kg, 15 to 30 nM and above 70%.
In the case of `COc1cc(OC2CC(F)(F)C2)c(F)cc1CNC(=O)[C@@H]1CCCN1C` [Example 37, (2S)—N-[[4-(3,3-Difluorocyclobutoxy)-5-fluoro-2-methoxy-phenyl]methyl]-1-methyl-pyrrolidine-2-carboxamide], in data set [1], the CLint scaled at 0.5 μM fell in the range of 500 to 1330 mL/min/kg. At 5-HT2C receptor, the EC50 is 5 to 15 nM and the Emax is above 70%.
For `COc1cc(OCC2CCC(F)(F)C2)c(F)cc1CNC(=O)[C@@H]1CCCN1C` (stereo partly drawn) [Example 38, (2S)—N-[[4-[(3,3-Difluorocyclopentyl)methoxy]-5-fluoro-2-methoxy-phenyl]methyl]-1-methyl-pyrrolidine-2-carboxamide], in that order: 1330 to 4170 mL/min/kg, 15 to 30 nM and above 70%.
The matching figures for `COc1cc(O[C@H]2CC[C@H](C(F)(F)F)CC2)c(F)cc1CNC(=O)[C@@H]1CCCN1C` [Example 39, (2S)—N-(5-Fluoro-2-methoxy-4-((trans-4-(trifluoromethyl)cyclohexyl)oxy)benzyl)-1-methyl-pyrrolidine-2-carboxamide]: 500 to 1330 mL/min/kg, 15 to 30 nM and above 70%.
For `COc1cc(OC2CCC(F)(F)CC2)c(F)cc1CNC(=O)[C@@H]1CCCN1C` [Example 40, (2S)—N-[[4-(4,4-Difluorocyclohexoxy)-5-fluoro-2-methoxy-phenyl]methyl]-1-methyl-pyrrolidine-2-carboxamide], the CLint scaled at 0.5 μM in data set [1] was 500 to 1330 mL/min/kg. On 5-HT2C receptor, the EC50 was in the range of 15 to 30 nM and the Emax was above 70%.
With `COc1cc(O[C@H]2CC[C@H](C(F)(F)F)CC2)c(F)cc1CNC(=O)[C@@H]1CCN1` [Example 41, (2S)—N-[[5-Fluoro-2-methoxy-4-[trans 4-(trifluoromethyl)cyclohexoxy]phenyl]-methyl]azetidine-2-carboxamide], the CLint scaled at 0.5 μM in data set [1] was below 500 mL/min/kg. Besides, at 5-HT2C receptor, the EC50 was below 5 nM and the Emax lay within 50 to 70%.
The matching figures for `[2H]C1([2H])NC([2H])(C(=O)NCc2cc(F)c(OC3CCC(C(F)(F)F)CC3)cc2OC)C([2H])([2H])C1([2H])[2H]` (stereo not drawn) [Example 42, 2,3,3,4,4,5,5-Heptadeuterio-N-[[5-fluoro-2-methoxy-4-[4-(trifluoromethyl)cyclohexoxy]phenyl]methyl]pyrrolidine-2-carboxamide]: below 500 mL/min/kg, below 5 nM and above 70%.
The matching figures for `COc1cc(OC2CCC(CF)CC2)c(F)cc1CNC(=O)[C@@H]1CCCN1` (stereo partly drawn) [Example 43, (2S)—N-[[5-Fluoro-4-[4-(fluoromethyl)cyclohexoxy]-2-methoxy-phenyl]methyl]-pyrrolidine-2-carboxamide]: below 500 mL/min/kg, 15 to 30 nM and above 70%.
